As a reminder, the Ki is the equilibrium dissociation constant of an inhibitor or competing ligand from its target. A lower Ki goes with a stronger hold on the target.

SMILES strings stand for the structures.

Here are results for two compounds from ChEMBL document CHEMBL1131715 (Bioorg Med Chem Lett, 1999).

This assay can be described thus: Inhibitory activity against zinc-dependent Glutamate Carboxypeptidase G.

`O=C(O)CC[C@H](NP(O)(=S)c1ccccc1)C(=O)O` (some centres not stated): the Ki was 3240 nM. In other words, the single-digit micromolar range.
As to `CCCCP(O)(=S)N[C@@H](CCC(=O)O)C(=O)O` (some centres not stated), the Ki came out at 264 nM. This Ki is about 12-fold lower than that of the compound before.
